Tests used:
MRP1 = MRP1 (Homo sapiens, UniProt P33527)
Method: (§1) To investigate if DPV was a substrate or inhibitor of MRP1 or MRP4, ATP-dependent and independent uptake of DPV (in the substrate study) or estradiol 17 β-D-glucuronide (a known MRP1/MRP4 substrate in the inhibitor study) was measured using 50 μg MRP1, MRP4, and control vesicles. […] The uptake assay was performed at a total volume of 50 μL with either 4 mM ATP or AMP, 2 mM glutathione, 10 μM DPV or estradiol 17 β-D-glucuronide as substrates, with and without 20 μM DPV or MK571 as inhibitors. […] To quantify the uptake amount of DPV or estradiol 17 β-D-glucuronide, 4 μCi mL^−1 3H-DPV or ^3H- estradiol 17 β-D-glucuronide was added to the assay mixture.
(§2) The vesicular uptake assays were performed under the above-mentioned conditions. The membrane vesicles were first incubated with respective inhibitor solution or blank assay buffer. The reaction was then initiated by adding the remaining components of the assay mixture to the vesicles and incubated at 37 °C for 3 min. To terminate the reaction, 200 μL ice-cold buffer was added to each well. The samples were then transferred to a glass fiber filter plate and washed 5 times by rapid filtration using a vacuum manifold (IBI Scientific, Dubuque, IA, USA). To quantify ^3H-DPV and ^3H-estradiol 17 β-D-glucuronide uptake, the washed vesicles were lysed with scintillation cocktail at room temperature for 20 min. The collected samples were analyzed on an LS6500 liquid scintillation counter (Beckman Coulter, Brea, CA, USA).
(§3) If ATP-dependent uptake was observed, the uptake amount by active transport was calculated using Equation (1):(1) Normalized uptake=mean uptake with ATP−mean uptake with AMP

MRP4 = target: T1, MRP4 (Homo sapiens, UniProt O15439); assay: in vitro
T1 sequence (O15439 1-1325): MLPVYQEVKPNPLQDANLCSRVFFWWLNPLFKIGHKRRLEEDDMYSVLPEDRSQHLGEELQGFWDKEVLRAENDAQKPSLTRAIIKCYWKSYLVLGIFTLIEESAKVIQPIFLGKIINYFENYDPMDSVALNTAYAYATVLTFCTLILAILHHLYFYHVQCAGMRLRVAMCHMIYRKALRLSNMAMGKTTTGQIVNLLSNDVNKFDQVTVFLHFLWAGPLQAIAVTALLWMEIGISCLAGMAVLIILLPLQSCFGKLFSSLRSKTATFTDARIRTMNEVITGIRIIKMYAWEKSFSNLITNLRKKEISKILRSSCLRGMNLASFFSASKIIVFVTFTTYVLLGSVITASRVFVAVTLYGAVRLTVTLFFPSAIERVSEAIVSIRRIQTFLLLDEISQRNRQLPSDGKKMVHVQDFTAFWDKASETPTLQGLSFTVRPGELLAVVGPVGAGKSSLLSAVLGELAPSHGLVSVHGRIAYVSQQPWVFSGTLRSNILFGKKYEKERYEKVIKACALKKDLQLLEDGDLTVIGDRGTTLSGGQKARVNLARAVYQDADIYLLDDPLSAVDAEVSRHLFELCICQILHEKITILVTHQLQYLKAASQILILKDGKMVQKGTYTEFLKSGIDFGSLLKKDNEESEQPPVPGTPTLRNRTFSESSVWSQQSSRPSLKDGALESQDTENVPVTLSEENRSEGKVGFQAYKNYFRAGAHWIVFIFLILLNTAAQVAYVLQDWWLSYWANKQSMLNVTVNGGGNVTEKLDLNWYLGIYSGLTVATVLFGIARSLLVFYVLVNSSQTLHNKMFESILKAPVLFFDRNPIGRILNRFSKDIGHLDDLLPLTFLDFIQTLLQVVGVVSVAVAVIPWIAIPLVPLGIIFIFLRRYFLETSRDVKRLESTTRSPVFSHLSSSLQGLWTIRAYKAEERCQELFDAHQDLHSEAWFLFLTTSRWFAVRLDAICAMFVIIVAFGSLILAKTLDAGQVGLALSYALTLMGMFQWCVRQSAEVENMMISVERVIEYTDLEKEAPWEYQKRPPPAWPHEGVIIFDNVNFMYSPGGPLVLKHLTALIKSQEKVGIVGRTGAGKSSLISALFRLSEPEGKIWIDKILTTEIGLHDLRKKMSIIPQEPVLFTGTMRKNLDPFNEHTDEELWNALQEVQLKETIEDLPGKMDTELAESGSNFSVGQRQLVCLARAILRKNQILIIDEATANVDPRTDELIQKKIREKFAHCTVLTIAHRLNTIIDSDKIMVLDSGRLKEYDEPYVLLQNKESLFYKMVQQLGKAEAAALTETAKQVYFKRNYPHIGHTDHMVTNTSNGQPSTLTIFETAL
Method: as §1, §2, §3

ENT1 = target: T2, ENT1 (Homo sapiens, UniProt Q99808); assay: Cellular uptake in HEK293 ENT1 and EV cells; type: in vitro ADME
T2 construct: host or cells: HEK293
T2 sequence (Q99808 1-456): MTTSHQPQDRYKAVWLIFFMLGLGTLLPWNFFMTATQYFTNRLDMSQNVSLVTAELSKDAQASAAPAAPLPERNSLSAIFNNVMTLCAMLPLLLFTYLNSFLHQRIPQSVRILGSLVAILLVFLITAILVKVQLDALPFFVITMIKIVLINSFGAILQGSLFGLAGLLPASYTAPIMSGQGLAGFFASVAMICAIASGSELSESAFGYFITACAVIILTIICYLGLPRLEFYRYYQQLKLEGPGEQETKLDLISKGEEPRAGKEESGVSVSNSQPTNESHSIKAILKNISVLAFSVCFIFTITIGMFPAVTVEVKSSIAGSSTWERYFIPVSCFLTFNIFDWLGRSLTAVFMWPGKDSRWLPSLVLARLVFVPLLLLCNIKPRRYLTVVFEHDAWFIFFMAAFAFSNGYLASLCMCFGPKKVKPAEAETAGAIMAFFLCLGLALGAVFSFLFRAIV
Method: HEK293 ENT1 and HEK293 EV cells were seeded at a density of 5 x 10^4 cells per well in 24-well plates and cultured for 4 days. Before the uptake assay, cells were starved in serum-free minimum essential medium at 37 °C for 3 h to activate the ENT1 transporter. The assays were performed in Krebs-Ringer buffer with pH 7.4 supplemented with 25 mM sodium bicarbonate and 1.2 mM calcium chloride dihydrate. […] 200 nM nitrobenzylthioinosine was also used as the positive control for ENT1 inhibition.
Starved cells were first incubated with respective inhibitor solution or blank Krebs-Ringer buffer for 30 min at 37 °C. […] To terminate the assay, ice-cold Dulbecco’s phosphate-buffered saline was added to cells. Cells were then washed twice with ice-cold Dulbecco’s phosphate-buffered saline and lysed with 1% SDS at room temperature for 20 min. […] The drug uptake was normalized against protein content. Changes in drug uptake between groups were calculated using the mean uptake values of individual groups.

[1] = 10 μM substrate, 20 μM test inhibitor, ATP minus AMP

MRP1, sequence (P33527 whole entry): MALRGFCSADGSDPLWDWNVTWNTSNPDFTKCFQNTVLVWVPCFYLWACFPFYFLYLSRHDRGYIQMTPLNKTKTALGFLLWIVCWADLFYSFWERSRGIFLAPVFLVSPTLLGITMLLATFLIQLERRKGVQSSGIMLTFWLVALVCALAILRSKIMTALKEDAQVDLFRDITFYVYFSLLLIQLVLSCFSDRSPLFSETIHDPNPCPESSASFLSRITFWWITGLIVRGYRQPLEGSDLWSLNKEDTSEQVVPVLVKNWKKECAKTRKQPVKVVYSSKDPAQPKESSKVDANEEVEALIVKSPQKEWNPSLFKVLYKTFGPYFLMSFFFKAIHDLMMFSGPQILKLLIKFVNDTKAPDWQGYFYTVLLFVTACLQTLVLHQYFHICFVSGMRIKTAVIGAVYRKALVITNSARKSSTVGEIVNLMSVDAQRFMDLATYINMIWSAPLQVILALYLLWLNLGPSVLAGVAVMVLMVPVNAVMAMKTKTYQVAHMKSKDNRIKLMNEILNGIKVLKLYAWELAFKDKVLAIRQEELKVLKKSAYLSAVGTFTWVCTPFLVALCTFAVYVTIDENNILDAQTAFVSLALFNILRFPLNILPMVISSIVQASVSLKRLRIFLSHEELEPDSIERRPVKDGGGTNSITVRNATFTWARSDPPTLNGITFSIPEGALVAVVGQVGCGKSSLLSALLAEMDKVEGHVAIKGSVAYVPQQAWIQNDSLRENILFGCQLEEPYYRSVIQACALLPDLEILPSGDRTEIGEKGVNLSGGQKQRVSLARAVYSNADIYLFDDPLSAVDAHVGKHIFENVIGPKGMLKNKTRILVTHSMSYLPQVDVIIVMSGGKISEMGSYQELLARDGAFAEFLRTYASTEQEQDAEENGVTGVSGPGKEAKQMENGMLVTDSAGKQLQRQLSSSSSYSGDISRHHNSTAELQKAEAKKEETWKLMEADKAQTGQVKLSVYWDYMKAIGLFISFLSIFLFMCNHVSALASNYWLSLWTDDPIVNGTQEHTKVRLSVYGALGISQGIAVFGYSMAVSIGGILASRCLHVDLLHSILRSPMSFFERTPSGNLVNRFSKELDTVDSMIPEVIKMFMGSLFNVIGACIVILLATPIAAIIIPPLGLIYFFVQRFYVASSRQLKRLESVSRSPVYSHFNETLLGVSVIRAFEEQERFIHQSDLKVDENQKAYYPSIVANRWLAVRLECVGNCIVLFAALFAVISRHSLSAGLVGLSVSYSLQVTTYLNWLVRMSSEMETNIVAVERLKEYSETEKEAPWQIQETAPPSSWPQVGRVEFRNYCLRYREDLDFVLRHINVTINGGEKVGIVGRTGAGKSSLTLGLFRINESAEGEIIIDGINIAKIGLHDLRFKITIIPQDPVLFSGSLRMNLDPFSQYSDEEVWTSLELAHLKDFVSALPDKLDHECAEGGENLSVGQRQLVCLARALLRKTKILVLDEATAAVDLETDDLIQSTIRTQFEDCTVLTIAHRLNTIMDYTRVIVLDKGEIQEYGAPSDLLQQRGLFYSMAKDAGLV

Structure (SMILES): Cc1cc(C)c(Nc2ccnc(Nc3ccc(C#N)cc3)n2)c(C)c1 [DPV, dapivirine]
- Substrate status for MRP1 (MRP1): not a substrate
- Normalized estradiol 17 β-D-glucuronide uptake by MRP1 vesicles co-incubated with inhibitor (MRP1; [1]): 35.83 fmol
- Active uptake of estradiol 17 β-D-glucuronide by MRP1 vesicles, reduced to % of control (MRP1; 20 µM): not significantly affected
- Substrate status for MRP4 (MRP4): not a substrate
- Normalized estradiol 17 β-D-glucuronide uptake by MRP4 vesicles co-incubated with inhibitor (MRP4; [1]): 14.08 fmol
- Active uptake of estradiol 17 β-D-glucuronide by MRP4 vesicles, reduced to % of control (MRP4; 20 µM): not significantly affected
- Cellular uptake of thymidine in HEK293 ENT1 cells, reduced to % of control (ENT1; 5 nM thymidine, nitrobenzylthioinosine 200 nM, DPV 5 μM): no significant impact
- Cellular uptake of DPV in HEK293 ENT1 cells compared with HEK293 EV cells (ENT1; 0.5 μM DPV, 10 min, 37 °C): similar
- Substrate status for ENT1 (ENT1; cellular system): not a substrate

Source: paper PMC9501983, “Transport and Permeation Properties of Dapivirine: Understanding Potential Drug-Drug Interactions” (Pharmaceutics, 2022)
